Laboratory results published in ChEMBL document CHEMBL2346623, “Deconstruction of sulfonamide inhibitors of the urotensin receptor (UT) and design and synthesis of benzylamine and benzylsulfone antagonists” (Bioorg Med Chem Lett, 2013).

How the values were obtained:
[1] = target: T1, Urotensin-2 receptor (Homo sapiens, UniProt Q9UKP6); assay: Antagonist activity at recombinant human urotensin2 receptor expressed in CHO cells assessed as inhibition of urotensin2-stimulated Ca2+ mobilization after 1 hr by FLIPR assay; format: functional, cell-based
T1 sequence (Q9UKP6 whole entry): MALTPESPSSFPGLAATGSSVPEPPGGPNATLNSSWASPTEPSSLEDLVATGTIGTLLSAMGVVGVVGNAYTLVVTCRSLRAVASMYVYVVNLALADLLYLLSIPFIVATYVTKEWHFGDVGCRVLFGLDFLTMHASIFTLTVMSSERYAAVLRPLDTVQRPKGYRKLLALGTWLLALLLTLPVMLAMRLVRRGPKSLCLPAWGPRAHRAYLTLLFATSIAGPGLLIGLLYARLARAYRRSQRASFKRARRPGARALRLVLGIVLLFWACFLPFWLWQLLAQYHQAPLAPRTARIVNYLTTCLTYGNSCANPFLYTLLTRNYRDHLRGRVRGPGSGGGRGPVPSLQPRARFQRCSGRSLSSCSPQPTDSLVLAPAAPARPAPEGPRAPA

[2] = target: T1, Urotensin-2 receptor; assay: Displacement of [125I]-U2 from human recombinant urotensin2 receptor expressed in human Chem-2 cells after 4 hrs by scintillation proximity assay; format: cell-based
[3] = target: T1, Urotensin-2 receptor; assay: Antagonist activity at recombinant human urotensin2 receptor expressed in CHO cells assessed as inhibition of urotensin2-stimulated Ca2+ mobilization incubated 10 mins prior to urotensin2 stimulation measured after 10 mins by fluorometric analysis; format: functional, cell-based
[4] = target: T1, Urotensin-2 receptor; assay: Displacement of [125I]-U2 from recombinant human urotensin2 receptor expressed in human U2OS cells after 30 mins by gamma counting analysis; format: cell-based
[5] = Drug metabolism in human liver microsomes relative to total liver blood flow; format: ADME, Microsome; conditions: read-out: Drug metabolism
[6] = Solubility of the compound at pH 7.4; format: physicochemical; conditions: buffer
[7] = Solubility of the compound at pH 4.5; format: physicochemical; conditions: buffer
[8] = target: T2, Urotensin-2 receptor (Rattus norvegicus, UniProt P49684); assay: Antagonist activity at rat urotensin2 receptor assessed as inhibition of urotensin2-stimulated Ca2+ mobilization by cell-based assay; format: functional
T2 sequence (P49684 whole entry): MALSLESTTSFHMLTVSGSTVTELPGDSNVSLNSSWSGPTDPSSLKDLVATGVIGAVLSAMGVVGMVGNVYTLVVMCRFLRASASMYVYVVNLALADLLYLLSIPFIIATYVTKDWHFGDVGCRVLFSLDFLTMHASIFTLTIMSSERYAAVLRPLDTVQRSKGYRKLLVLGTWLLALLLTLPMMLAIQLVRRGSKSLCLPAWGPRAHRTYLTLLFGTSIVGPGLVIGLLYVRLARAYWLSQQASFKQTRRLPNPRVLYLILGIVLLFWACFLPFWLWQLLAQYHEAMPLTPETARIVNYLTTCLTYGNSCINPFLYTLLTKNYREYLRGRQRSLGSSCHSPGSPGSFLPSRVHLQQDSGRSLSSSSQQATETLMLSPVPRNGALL

[9] = target: T3, Urotensin-2 receptor (Mus musculus, UniProt Q8VIH9); assay: Antagonist activity at mouse urotensin2 receptor assessed as inhibition of urotensin2-stimulated Ca2+ mobilization by cell-based assay; format: functional
T3 sequence (Q8VIH9 whole entry): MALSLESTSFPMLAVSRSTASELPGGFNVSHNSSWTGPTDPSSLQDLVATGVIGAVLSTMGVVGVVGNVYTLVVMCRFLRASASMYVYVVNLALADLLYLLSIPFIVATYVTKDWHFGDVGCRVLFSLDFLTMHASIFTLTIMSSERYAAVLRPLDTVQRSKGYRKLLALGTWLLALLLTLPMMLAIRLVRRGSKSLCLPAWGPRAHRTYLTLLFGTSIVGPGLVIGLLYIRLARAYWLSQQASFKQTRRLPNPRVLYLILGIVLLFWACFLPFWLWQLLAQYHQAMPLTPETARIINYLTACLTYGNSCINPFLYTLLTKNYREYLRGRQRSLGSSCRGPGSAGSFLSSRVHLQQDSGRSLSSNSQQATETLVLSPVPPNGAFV

[10] = Drug metabolism in rat liver microsomes relative to total liver blood flow; format: ADME, Microsome; conditions: read-out: Drug metabolism

Row | SMILES | IC50 [1] [nM] | IC50 [2] [nM] | hepatic extraction ratio [5] | further results
1 | Cc1cc(NC(=O)NCCN2CCC(O)(Cc3ccccc3)CC2)c2ccccc2n1 [PALOSURAN] | – | – | 0.53 | IC50 [3]: 39 nM; IC50 [4]: < 5 nM
2 | COc1cc(Br)c(CNc2ccc(Cl)c(O[C@H]3CCN(C)C3)c2)cc1OC | 1450 | 1350 | 0.36 | –
3 | COc1cc(Br)c(S(=O)(=O)Nc2ccc(C(F)(F)F)c(OCCN3CCN(C)CC3)c2)cc1OC | – | 840 | – | –
4 | COc1cc(Br)c(CNc2ccc(Cl)c(OCCN(C)C)c2)cc1OC | 1300 | 1200 | – | –
5 | COc1cc(Br)c(S(=O)(=O)Cc2ccc(Cl)c(O[C@@H]3CCN(C)C3)c2)cc1OC | – | – | – | solubility [6]: > 87 µg/mL; solubility [7]: > 87 µg/mL; IC50 [8]: 2000 nM; IC50 [9]: 4700 nM
6 | COc1cc(Br)c(S(=O)(=O)Nc2ccc(C(F)(F)F)c(F)c2)cc1OC | – | > 10000 | – | –
7 | COc1cc(Br)c(S(=O)(=O)Nc2ccc(C(F)(F)F)c(OC[C@@H]3CCCN3C)c2)cc1OC | – | 2100 | – | –
8 | CN1CC[C@H](Oc2cc(NCc3cccs3)ccc2C(F)(F)F)C1 | 2000 | 2700 | – | –
9 | CN(C)CCOc1cc(NCc2ccccc2Br)ccc1Cl | 6000 | 3500 | – | –
10 | CN(C)CCOc1cc(NCc2ccccc2)ccc1Cl | – | > 10000 | – | –
11 | COc1cc(Br)c(S(=O)(=O)Nc2ccc(C(F)(F)F)c(OCCN3CCOCC3)c2)cc1OC | – | 6200 | – | –
12 | CN1CC[C@H](Oc2cc(NCc3ccccc3Br)ccc2C(F)(F)F)C1 | 1870 | 821 | – | –

The next lines start with results.

Row | IC50 [1] [nM] | IC50 [2] [nM] | hepatic extraction ratio [5] | SMILES | further results
13 | 1130 | 691 | – | COc1cccc(CNc2ccc(C(F)(F)F)c(O[C@H]3CCN(C)C3)c2)c1 | –
14 | 100 | 134 | – | COc1cc(Br)c(S(=O)(=O)Nc2ccc(C(F)(F)F)c(OCCN(C)C)c2)cc1OC | –
15 | – | 245 | 0.72 | COc1cc(Br)c([S+]([O-])Cc2ccc(Cl)c(O[C@@H]3CCN(C)C3)c2)cc1OC (stereo partly drawn) | –
16 | 950 | 450 | – | CN1CC[C@H](Oc2cc(NCc3cc4c(cc3Br)OCO4)ccc2C(F)(F)F)C1 | –
17 | 1400 | 620 | – | CN1CC[C@H](Oc2cc(NCc3c(Br)ccc4c3OCO4)ccc2C(F)(F)F)C1 | –
18 | 1330 | 237 | 0.28 | COc1cc(Br)c(CNc2ccc(Cl)c(O[C@@H]3CCN(C)C3)c2)cc1OC | –
19 | 43 | 23 | 0.65 | COc1cc(Br)c(S(=O)(=O)Nc2ccc(Cl)c(O[C@@H]3CCN(C)C3)c2)cc1OC | –
20 | 191 | 217 | 0.43 | COc1cc(Br)c(CNc2ccc(C(F)(F)F)c(O[C@H]3CCN(C)C3)c2)cc1OC | solubility [6]: > 52 µg/mL; hepatic extraction ratio [10]: < 0.06; solubility [7]: > 52 µg/mL; IC50 [8]: 3900 nM; IC50 [9]: 6400 nM
21 | 765 | 520 | – | CN(C)CCOc1cc(NCc2ccccc2C(F)(F)F)ccc1Cl | –
22 | 350 | 800 | – | COc1cc(Br)c(S(=O)(=O)Nc2ccc(C(F)(F)F)c(OC[C@H]3CCCN3C)c2)cc1OC | –
23 | – | 440 | 0.76 | COc1cc(Br)c(SCc2ccc(Cl)c(O[C@@H]3CCN(C)C3)c2)cc1OC | –
